Results on 91 compounds are retold here after patent US6518423B1, “Benzopiperidine derivatives” (Eisai Co., Ltd., priority 1996, dated 2003).

The melting point is the temperature, or range, at which the solid turns liquid.

Take `CS(=O)(=O)N(CC(=O)O)C1CCN(Cc2ccc3c(c2)Nc2nccnc2S3)CC1`: the melting point is 210 to 215 °C.
With `COc1cc(C2CCN(Cc3ccc4c(c3)Nc3nccnc3S4)CC2)cc(CC(=O)O)c1OC` the figure was 138 to 140 °C; with `CCOC(=O)CCCNC(Cc1ccc2c(c1)Nc1nccnc1S2)=NC#N`, 154 to 155 °C; with `CCCCCCCCC/C(=C\c1ncn(Cc2ccc3c(c2)Nc2nccnc2S3)c1C)C(=O)O`, 194 to 197 °C.
The figure for `Cl.N=C(Cc1ccc2c(c1)Nc1nccnc1S2)Nc1ccccc1` is 245 to 249 °C (dec.); for `CCCCC(Sc1ncnc2c1ncn2Cc1ccc2c(c1)Nc1nccnc1S2)C(=O)O` (stereo not shown) it is 110 to 120 °C (dec.); for `CCOC(=O)c1ccc2c(c1)Nc1nccnc1N2C` it is 239 to 242 °C.
`Cc1cc(NCc2ccc3c(c2)Nc2nccnc2S3)cc(C)n1` came in with a melting point of 230 to 235 °C.
With `O=C(O)CC1C2CN(Cc3ccc4c(c3)Nc3nccnc3S4)CC1C21CCC1` (stereo not shown) [Example 86] the figure was 90 to 92 °C.
With `c1cnc2c(n1)Nc1cc(CN3CCc4ccoc4C3)ccc1S2` the figure was 168 to 172 °C; with `CN(C)/C=N/Cc1ccc2c(c1)Nc1nccnc1S2`, 218 to 219 °C.
The figure for `O=C(O)CSc1ccc(C(O)c2ccc3c(c2)Nc2nccnc2S3)cn1` (stereo not shown) is 65 to 70 °C; for `O=C1C=CN(Cc2ccc3c(c2)Nc2nccnc2S3)CC1` it is 233 to 235 °C; for `COCc1ccc2c(c1)Nc1nccnc1S2` it is 189 to 192 °C.
On to `Cc1cccc2c1Sc1nccnc1N2`, for which the melting point lay in the range of 165 to 166 °C.
With `Cc1c(C(N)=O)ncn1Cc1ccc2c(c1)Nc1nccnc1S2` the figure was greater than 298 °C; with `CCNC(=O)N(Cc1ccc2c(c1)Nc1nccnc1S2)c1cccnc1`, 210 to 212 °C; with `NS(=O)(=O)NCCc1cn(Cc2ccc3c(c2)Nc2nccnc2S3)cn1`, 187 to 189 °C.
With `COc1ccc2c(c1)Nc1nccnc1N2C` the figure was 198 to 201 °C; with `OCCCCCCOc1ccc(NCc2ccc3c(c2)Nc2nccnc2S3)cn1`, 124 to 128 °C.
With `c1ccn(Cc2ccc3c(c2)Nc2nccnc2S3)c1` the figure was 197 to 198 °C; with `c1ccc(COCc2ccc3c(c2)Nc2nccnc2S3)cc1`, 118 to 120 °C.
As for `NCCN1CCN(c2ncnc3c2ncn3Cc2ccc3c(c2)Nc2nccnc2S3)CC1`, the melting point lay in the range of 226 to 229 °C.
With `N#CN=C(N)NCc1ccc2c(c1)Nc1nccnc1S2` the figure was 246 to 248 °C; with `CN1c2cc(C#N)ccc2Nc2nccnc21`, greater than 275 °C; with `CCC/C(=N\OCC(=O)O)C1CCN(Cc2ccc3c(c2)Nc2nccnc2S3)CC1`, 193 to 195 °C.
The figure for `CNC(Cc1ccc2c(c1)Nc1nccnc1S2)=NC#N` is 233 to 234 °C (dec.).
With `CC(C)(CCCN1CCN(Cc2ccc3c(c2)Nc2nccnc2S3)CC1)C(=O)O` [751] the figure was greater than 275 °C; with `CNS(=O)(=O)NCC1CN(Cc2ccc3c(c2)Nc2nccnc2S3)C1`, 173 to 176 °C.
The compound `CCc1ncnc2c1ncn2Cc1ccc2c(c1)Nc1nccnc1S2` displayed a melting point of 215 to 217 °C.
In turn, `CC(C)Oc1ccc(NCc2ccc3c(c2)Nc2nccnc2S3)cn1` gave a melting point of 145 to 148 °C.
Consider `CCOC(=O)C#Cc1ccc2c(c1)Nc1nccnc1N2C`, for which the melting point lay within 232 to 235 °C.
The figure for `CN1c2ccc(CN)cc2Nc2nccnc21` is 117 to 122 °C; for `c1ccc(CCNCc2ccc3c(c2)Nc2nccnc2S3)nc1` it is 179 to 182 °C; for `O=C(O)CCCN1CCC(NCc2ccc3c(c2)Nc2nccnc2S3)CC1` it is 121 to 124 °C.
With `CC(C(=O)O)C1CC2(CCN(Cc3ccc4c(c3)Nc3nccnc3S4)CC2)C1` (stereo not shown) the figure was 169 to 172 °C; with `CC(CCC1CCN(C(=N)Cc2ccc3c(c2)Nc2nccnc2S3)CC1)C(=O)O.Cl` (stereo not shown), 166 to 171 °C; with `c1cnc2c(n1)Nc1cc(Cn3ncnn3)ccc1S2`, 206 to 208 °C.
`CCOC1(CC(=O)O)CC2(CCN(Cc3ccc4c(c3)Nc3nccnc3S4)CC2)C1` had a melting point of 226 to 227 °C.
The compound `CC(C)(CCC1CCN(Cc2ccc3c(c2)Nc2nccnc2S3)CC1)C(=O)O` had a melting point of 180 to 185 °C.
With `c1cnc2c(c1)ccn2Cc1ccc2c(c1)Nc1nccnc1S2` the figure was 202 to 204 °C.
With `O=C(O)CC1CCN(Cc2ccc3c(c2)Nc2nccnc2S3)CC1` the figure was 142 to 146 °C; with `Cl.OC1CN=C(Cc2ccc3c(c2)Nc2nccnc2S3)NC1` (stereo not shown), 156 to 163 °C; with `CN(C)c1ncnc2c1ncn2Cc1ccc2c(c1)Nc1nccnc1S2`, 229 to 233 °C.
For the compound `N#CN=CN(Cc1ccc2c(c1)Nc1nccnc1S2)Cc1ccccn1`, the melting point is 208 to 210 °C.
`Cl.O[C@@H]1CN(Cc2ccc3c(c2)Nc2nccnc2S3)C[C@H]1O` (relative stereo): the melting point is 241 to 242 °C (dec.).
For `NC(=O)C1CCN(Cc2ccc3c(c2)Nc2nccnc2O3)CC1`, the melting point was in the range of 287 to 288 °C.
`O=C(O)Cc1ccc(C2(O)CCN(Cc3ccc4c(c3)Nc3nccnc3S4)CC2)cc1`: the melting point was 192 °C (dec.).
The figure for `CNS(=O)(=O)CCC1CCN(Cc2ccc3c(c2)Nc2nccnc2S3)CC1` is 195 to 198 °C; for `COc1ccc(NCc2ccc3c(c2)Nc2nccnc2S3)cn1` it is 168 to 172 °C.
Turning to `c1ccc(CN2CCN(c3ncnc4c3ncn4Cc3ccc4c(c3)Nc3nccnc3S4)CC2)cc1`, the melting point was in the range of 213 to 214 °C.
With `C(=C\c1ccc2c(c1)Nc1nccnc1S2)/c1ccncc1`, the melting point was greater than 275 °C.
The figure for `N#CN=C(Cc1ccc2c(c1)Nc1nccnc1S2)NCCCC(=O)O` is 217 to 218 °C (dec.); for `CC1CC(C)CN(c2ncnc3c2ncn3Cc2ccc3c(c2)Nc2nccnc2S3)C1` (stereo not shown) it is 237 to 238 °C; for `C/C(=C\CC1CCN(Cc2ccc3c(c2)Nc2nccnc2S3)CC1)C(=O)O` it is 91 to 93 °C.
With `Cc1ncn(Cc2ccc3c(c2)Nc2nccnc2S3)c1C(C)O` (stereo not shown) the figure was 178 to 182 °C; with `CNS(=O)(=O)NC1CCN(Cc2ccc3c(c2)Nc2nccnc2O3)CC1`, 219 to 222 °C.
The figure for `c1cnc2c(n1)Nc1cc(Cn3cnc4c(N5CCCCC5)ncnc43)ccc1S2` is 228 to 229 °C; for `CC(=O)c1ncnc2ncn(Cc3ccc4c(c3)Nc3nccnc3S4)c12` it is 266 to 268 °C; for `Cc1ncn(Cc2ccc3c(c2)Nc2nccnc2S3)c1C(C)(C)O` it is 199 to 202 °C.
The compound `FC(F)(c1cccnc1)c1ccc2c(c1)Nc1nccnc1S2` displayed a melting point of 183 to 184 °C.
With `CN(C)CC#Cc1ccc2c(c1)Nc1nccnc1N2C` the figure was 188 to 189 °C; with `c1ccc(-c2cn(Cc3ccc4c(c3)Nc3nccnc3S4)cn2)cc1`, 216 to 218 °C; with `O=C(CCCC1CCN(Cc2ccc3c(c2)Nc2nccnc2S3)CC1)Nc1nnn[nH]1`, 190 to 191 °C.
With `CC(C)(O)c1ncnc2ncn(Cc3ccc4c(c3)Nc3nccnc3S4)c12` the figure was 268 to 271 °C; with `Nc1ncnc2c1ncn2Cc1ccc2c(c1)Nc1nccnc1S2`, 290 °C; with `c1cc(CNCc2ccc3c(c2)Nc2nccnc2S3)ccn1`, 174 to 176 °C.
With `CC(CCC1CCN(Cc2ccc3c(c2)Nc2nccnc2O3)CC1)C(=O)O` (stereo not shown) the figure was 238 to 240 °C.
Take `N=C(N)N1CCN(Cc2ccc3c(c2)Nc2nccnc2S3)CC1`: the melting point is 265 to 271 °C (dec.).
With `CN(C)C(=O)C#Cc1ccc2c(c1)Nc1nccnc1N2C`, the melting point fell in the range of 203 to 205 °C.
In turn, `CC(CCC1CCN(Cc2ccc3c(c2)Nc2ncccc2S3)CC1)C(=O)O` (stereo not shown) returned a melting point of 113 to 115 °C.
Take `Clc1nccn1Cc1ccc2c(c1)Nc1nccnc1S2`: the melting point was 231 to 232 °C.
As to `CN1c2ccc(C(O)c3nccn3S(=O)(=O)N(C)C)cc2Nc2nccnc21` (stereo not shown), the melting point fell in the range of 185 to 190 °C.
The figure for `O=S(=O)(NCCc1cn(Cc2ccc3c(c2)Nc2nccnc2S3)cn1)c1ccccc1` is 127 to 130 °C; for `CNS(=O)(=O)N1CCN(Cc2ccc3c(c2)Nc2nccnc2S3)CC1` it is 208 to 210 °C; for `O=C(NCc1ccc2c(c1)Nc1nccnc1S2)c1cccnc1` it is 243 to 245 °C (dec.).
The figure for `N#CC1CCN(Cc2ccc3c(c2)Nc2nccnc2S3)CC1` is 198 to 199 °C.
The figure for `CC(C)c1nccn1Cc1ccc2c(c1)Nc1nccnc1S2` is 241 to 242 °C; for `O=C(O)CC1CC2CCC(C1)N2Cc1ccc2c(c1)Nc1nccnc1S2` (stereo not shown) it is 155 to 158 °C; for `Cl.N=C(N)c1ccc2c(c1)Nc1nccnc1S2` it is greater than 280 °C.
Consider `CN1c2ccc(C(O)C#Cc3ccccc3)cc2Nc2nccnc21` (stereo not shown), for which the melting point is 204 to 208 °C.
On to `CCOC(=O)CC(=O)c1ccc2c(c1)Nc1nccnc1N2C`, for which the melting point fell in the range of 88 to 89 °C.
With `c1cn(Cc2ccc3c(c2)Nc2nccnc2O3)cn1` the figure was 252 to 255 °C.
The figure for `c1ccc2c(c1)Nc1nccnc1N2` is 215 to 217 °C; for `CC(c1cccnc1)c1ccc2c(c1)Nc1nccnc1S2` (stereo not shown) it is 180 to 181 °C.
As for `Cc1oncc1C(=O)NCCc1cn(Cc2ccc3c(c2)Nc2nccnc2S3)cn1`, the melting point lay in the range of 165 to 167 °C.
In the case of `O=C(Nc1ccccc1)OCc1ccc2c(c1)Nc1nccnc1S2`, the melting point lay in the range of 237 to 240 °C.
In the case of `OCC(O)CN1c2ccccc2Nc2nccnc21` (stereo not shown), the melting point is 191 to 194 °C.
`O=C(Nc1ccccc1)N(Cc1ccc2c(c1)Nc1nccnc1S2)c1cccnc1` showed a melting point of 208 to 210 °C.
For `O=C1CCN(Cc2ccc3c(c2)Nc2nccnc2S3)CC1`, the melting point is 186 to 188 °C.
With `CCCCC#CC(O)c1ccc2c(c1)Nc1nccnc1S2` (stereo not shown) the figure was 116 to 118 °C.
